In patent publication US20040186122A1, “Method of treating acute pain with a unitary dosage form comprising ibuprofin and oxycodone” (Forest Laboratories, Inc., priority 2002, published 2004):

Columns and labels:
Caco-2 cell monolayers [1] = test: Membrane integrity (TEER) of Caco-2 cell monolayers before and after transport; type: cell-based; conditions: at the concentrations used; TEER 980-1002 Ωcm^2 before, not changed after transport
Description: Each treatment was performed in triplicate. […] Samples then underwent LC/MS/MS analysis.

in vitro = conditions: human, Caco-2, Apparent permeability coefficients of ibuprofen (±standard deviation) (n = 3)
[2] = cited from earlier work
[3] = tertiary amine; cited from earlier work
[4] = Transport (Papp) across Caco-2 cell monolayers, AP to BL; conditions: human, Caco-2, Apparent permeability coefficients of oxycodone (±standard deviation) (n = 3); for Papp A→B at 20 min, 0.02 mg/ml: after 20 minutes; for Papp A→B at 80 min, 0.02 mg/ml: oxycodone 0.02 mg/ml, AP-to-BL
Caco-2 cell monolayers [5] = test: as above; conditions: after the initial 20-minute transport period

SMILES	integrity of Caco-2 cell monolayers (TEER) (Caco-2 cell monolayers [1])	Papp A→B at 80 min, 0.2 mg/ml (in vitro)	bioavailability ([2]; literature (Hall et al. 1993))	absolute bioavailability ([2]; literature (Leow et al. 1992))	pKa [3]	Papp A→B at 20 min, 0.02 mg/ml ([4]; ibuprofen 0 mg/ml)	Papp A→B at 20 min, 0.02 mg/ml ([4]; ibuprofen 0.8 mg/ml)	Papp A→B at 20 min, 0.02 mg/ml ([4]; ibuprofen 1.6 mg/ml)	Papp A→B at 20 min, 0.02 mg/ml ([4]; ibuprofen 3.2 mg/ml)	Papp A→B at 80 min, 0.02 mg/ml ([4]; ibuprofen 0 mg/ml)	Papp A→B at 80 min, 0.02 mg/ml ([4]; ibuprofen 0.8 mg/ml)	Papp A→B at 80 min, 0.02 mg/ml ([4]; ibuprofen 1.6 mg/ml)	Papp A→B at 80 min, 0.02 mg/ml ([4]; ibuprofen 3.2 mg/ml (precipitate))	percentage of transported oxycodone from apical to basolateral compartment (Caco-2 cell monolayers [5]; ibuprofen 0.8 mg/ml)	percentage of transported oxycodone from apical to basolateral compartment (Caco-2 cell monolayers [5]; ibuprofen 1.6 mg/ml)	transport of oxycodone, effect of ibuprofen (Caco-2 cell monolayers [5]; ibuprofen 3.2 mg/ml (precipitating))	percentage of transported oxycodone from apical to basolateral compartment (Caco-2 cell monolayers [5]; no ibuprofen)
CC(C)Cc1ccc(C(C)C(=O)O)cc1 (stereo not drawn) [ibuprofen]	did not compromise the integrity	56.5 ± 4.3 ×10⁻⁶ cm/s	~100%	–	–	–	–	–	–	–	–	–	–	–	–	–	–
COc1ccc2c3c1O[C@H]1C(=O)CC[C@@]4(O)[C@@H](C2)N(C)CC[C@]314.Cl [oxycodone HCl, oxycodone hydrochloride]	did not compromise the integrity	–	–	87%	about 9	15 ± 0.9 ×10⁻⁶ cm/s	20 ± 0.6 ×10⁻⁶ cm/s	19 ± 0.3 ×10⁻⁶ cm/s	16 ± 0.7 ×10⁻⁶ cm/s	54.2 ± 0.9 ×10⁻⁶ cm/s	56.9 ± 1.4 ×10⁻⁶ cm/s	55.1 ± 1.3 ×10⁻⁶ cm/s	50.5 ± 0.5 ×10⁻⁶ cm/s	20%	19%	did not increase the transport	15%
